Assay results taken from ChEMBL document CHEMBL1201862, “PubChem BioAssay data set” (2004).
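Values below derive from 48-hour exposures of cells grown in 96-well plates, with endpoints linearly interpolated between the two concentrations bracketing the appropriate inhibition level. At the GI50, growth is halved.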 Activity calls are given as the source filed them. Cut-off read from the data, not from the text of the source: active = GI50 up to about 1.1 µM and inactive = higher.

How the values were obtained:
Assay in all cases: NCI-60 cell line screen, 48 h
NCI/ADR-RES = tested on: NCI/ADR-RES
NCI-H226 = tested on: NCI-H226
DU-145 = tested on: DU-145
COLO 205 = tested on: COLO 205
LOX IMVI = tested on: LOX IMVI
SNB-75 = tested on: SNB-75
HL-60 = tested on: HL-60
NCI-H460 = tested on: NCI-H460
SF-268 = tested on: SF-268
T47D = tested on: T47D
SN12C = tested on: SN12C
ACHN = tested on: ACHN
HT-29 = tested on: HT-29
RXF 393 = tested on: RXF 393
SK-MEL-5 = tested on: SK-MEL-5
MDA-MB-435 = tested on: MDA-MB-435
CCRF-CEM = tested on: CCRF-CEM
M14 = tested on: M14
RPMI-8226 = tested on: RPMI-8226

Measured: GI50

O=C(O)C1CSC2(CCCN(Cc3ccccc3)C2)N1 (stereo unspecified)
inactive: NCI/ADR-RES > 100 µM | NCI-H226 > 100 µM | DU-145 > 100 µM | COLO 205 > 100 µM | LOX IMVI > 100 µM | SNB-75 > 100 µM | HL-60 > 100 µM | NCI-H460 > 100 µM | SF-268 > 100 µM | T47D > 100 µM | SN12C > 100 µM | ACHN > 100 µM | HT-29 > 100 µM | RXF 393 > 100 µM | SK-MEL-5 > 100 µM | MDA-MB-435 > 76.7 µM | CCRF-CEM 23.4 µM | M14 > 100 µM

CC1(C)SC2C(NC(=O)Cc3ccccc3)C(=O)N2C1C(=O)O (stereo unspecified)
inactive: NCI/ADR-RES > 100 µM | NCI-H226 34 µM | DU-145 > 100 µM | COLO 205 65.6 µM | LOX IMVI > 100 µM | SNB-75 > 100 µM | HL-60 > 100 µM | NCI-H460 > 100 µM | SF-268 > 100 µM | T47D > 100 µM | SN12C > 100 µM | ACHN > 100 µM | HT-29 > 100 µM | RXF 393 > 100 µM | SK-MEL-5 > 100 µM | MDA-MB-435 > 100 µM | M14 > 100 µM

COc1ccc(C(Nc2ncccn2)c2cc3c(cc2O)OCO3)cc1 (stereo unspecified)
inactive: NCI/ADR-RES 30.8 µM | NCI-H226 21.7 µM | DU-145 20.5 µM | RPMI-8226 22.8 µM | COLO 205 26.6 µM | LOX IMVI 16.9 µM | SNB-75 10.2 µM | HL-60 16.4 µM | NCI-H460 20.1 µM | SF-268 17.3 µM | T47D 13.3 µM | SN12C 17.4 µM | ACHN 41.8 µM | HT-29 24.8 µM | RXF 393 17.9 µM | SK-MEL-5 20.4 µM | MDA-MB-435 19.9 µM | M14 20.6 µM

O=[N+]([O-])c1ccc(Cl)cc1N/N=C/c1cccs1
inactive: NCI/ADR-RES > 100 µM | NCI-H226 38.5 µM | DU-145 > 100 µM | RPMI-8226 > 100 µM | COLO 205 > 100 µM | SNB-75 > 100 µM | HL-60 > 100 µM | NCI-H460 > 100 µM | SF-268 > 100 µM | T47D 26.4 µM | SN12C > 100 µM | ACHN > 100 µM | HT-29 > 100 µM | RXF 393 > 100 µM | SK-MEL-5 > 100 µM | MDA-MB-435 > 100 µM | CCRF-CEM > 100 µM | M14 > 100 µM

Cc1ccc(NC(=O)c2ccccc2C(=O)O)cc1C
inactive: NCI/ADR-RES > 100 µM | NCI-H226 > 100 µM | DU-145 > 100 µM | RPMI-8226 > 100 µM | COLO 205 > 100 µM | LOX IMVI > 100 µM | SNB-75 > 100 µM | NCI-H460 > 100 µM | SF-268 > 100 µM | T47D > 100 µM | SN12C > 100 µM | ACHN > 100 µM | HT-29 > 100 µM | RXF 393 > 100 µM | SK-MEL-5 > 100 µM | MDA-MB-435 > 100 µM | M14 > 100 µM

O=C1c2c(Br)sc(Br)c2[C@H]2NC(=S)O[C@@H]12
inactive: NCI/ADR-RES 21.4 µM | NCI-H226 20.7 µM | DU-145 16 µM | RPMI-8226 7.38 µM | COLO 205 13.4 µM | LOX IMVI 13.9 µM | SNB-75 19.1 µM | NCI-H460 18.6 µM | SF-268 15 µM | T47D 21.8 µM | SN12C 17.6 µM | ACHN 17.7 µM | HT-29 14.5 µM | RXF 393 13.3 µM | SK-MEL-5 15.8 µM | MDA-MB-435 13.8 µM | CCRF-CEM 2.15 µM | M14 14.3 µM
